Data published in PubChem BioAssay AID328 (DTP/NCI, 2004).
Where “and” joins values, the source holds several entries; their conditions need not be identical. Identical values can stand only once. Inconclusive results and toxic doses are left out.

System: BDF1 mice, P388 leukemia ip, median survival T/C
Experiment: NCI In Vivo Anticancer Drug Screen. Data for tumor model P388 Leukemia (intraperitoneal) in B6D2F1 (BDF1) mice
Settings: endpoint: median survival time, higher = longer survival
Outline: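 Steps: implant the tumour, treat one group with compound and another with vehicle, record survival, then divide treated by control.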

[1] = dose: 50.0 mg/kg/injection, schedule: Q01DX009 (ip), vehicle: saline with Tween-80
[2] = dose: 100.0 mg/kg/injection, schedule: Q01DX009 (ip), vehicle: saline with Tween-80
[3] = dose: 200.0 mg/kg/injection, schedule: Q01DX009 (ip), vehicle: saline with Tween-80
[4] = dose: 100.0 mg/kg/injection, schedule: Q01DX009 (ip), vehicle: Klucel (hydroxypropylcellulose) (HPC)
[5] = dose: 100.0 mg/kg/injection, schedule: Q04DX003 (ip), vehicle: Klucel (hydroxypropylcellulose) (HPC)
[6] = dose: 200.0 mg/kg/injection, schedule: Q01DX009 (ip), vehicle: Klucel (hydroxypropylcellulose) (HPC)
[7] = dose: 200.0 mg/kg/injection, schedule: Q04DX003 (ip), vehicle: Klucel (hydroxypropylcellulose) (HPC)
[8] = dose: 400.0 mg/kg/injection, schedule: Q01DX009 (ip), vehicle: Klucel (hydroxypropylcellulose) (HPC)
[9] = dose: 400.0 mg/kg/injection, schedule: Q04DX003 (ip), vehicle: Klucel (hydroxypropylcellulose) (HPC)
[10] = dose: 100.0 mg/kg/injection, schedule: Q04DX003 (ip), vehicle: saline
[11] = dose: 200.0 mg/kg/injection, schedule: Q04DX003 (ip), vehicle: saline
[12] = dose: 25.0 mg/kg/injection, schedule: Q01DX009 (ip), vehicle: Klucel (hydroxypropylcellulose) (HPC)
[13] = dose: 100.0 mg/kg/injection, schedule: Q04DX003 (ip), vehicle: saline with Tween-80
[14] = dose: 200.0 mg/kg/injection, schedule: Q04DX003 (ip), vehicle: saline with Tween-80
[15] = dose: 400.0 mg/kg/injection, schedule: Q04DX003 (ip), vehicle: saline with Tween-80

Q: What does the source list for `CCCCCCCCCCCCCCCCCC[N+](C)(C)C`?
A: T/C (dose: 1.56 mg/kg/injection, schedule: Q04DX003 (ip), vehicle: saline): 115 % of control; T/C (dose: 3.12 mg/kg/injection, schedule: Q04DX003 (ip), vehicle: saline): 115 % of control; T/C (dose: 4.12 mg/kg/injection, schedule: Q01DX009 (ip), vehicle: saline): 115 % of control; T/C (dose: 6.25 mg/kg/injection, schedule: Q01DX009 (ip), vehicle: saline): 90 % of control; T/C (dose: 6.25 mg/kg/injection, schedule: Q04DX003 (ip), vehicle: saline): 120 % of control; T/C (dose: 9.2 mg/kg/injection, schedule: Q04DX003 (ip), vehicle: saline): 104 % of control; T/C (dose: 14.0 mg/kg/injection, schedule: Q04DX003 (ip), vehicle: saline): 100 % of control; T/C (dose: 21.0 mg/kg/injection, schedule: Q04DX003 (ip), vehicle: saline): 90 % of control

Q: For `NC(=O)OCC#CCCl`, which T/C [1] is on record?
A: 100 % of control

Q: What about the T/C [2] of the same compound?
A: 98 % of control

Q: And the T/C [3]?
A: 96 % of control

Q: `CCC(=O)OC1CC2(C)C(=CC1=O)CCC1C2CCC2(C)C(OC(=O)CC)CCC12` (stereo unspecified) was tested. Which T/C (dose: 100.0 mg/kg/injection, schedule: Q01DX001 (ip), vehicle: Klucel (hydroxypropylcellulose) (HPC)) did it give?
A: 90 % of control

Q: What about the T/C [4] of the same compound?
A: 104 % of control

Q: What about the T/C [5] of the same compound?
A: 108 % of control

Q: And the T/C (dose: 200.0 mg/kg/injection, schedule: Q01DX001 (ip), vehicle: Klucel (hydroxypropylcellulose) (HPC))?
A: 95 % of control

Q: And the T/C [6]?
A: 109 % of control

Q: And the T/C [7]?
A: 100 % of control

Q: What about the T/C (dose: 400.0 mg/kg/injection, schedule: Q01DX001 (ip), vehicle: Klucel (hydroxypropylcellulose) (HPC)) of the same compound?
A: 100 % of control

Q: What about the T/C [8] of the same compound?
A: 109 % of control

Q: And the T/C [9]?
A: 95 % of control

Q: How did the T/C [1] turn out when `CCn1c2ccccc2c2cc(NC(=O)Nc3ccc([N+](=O)[O-])cc3C)ccc21` was run?
A: 100 % of control

Q: What about the T/C [2] of the same compound?
A: 91 % of control

Q: What about the T/C [3] of the same compound?
A: 91 % of control

Q: With `CCCCN1CCNCC1` as the compound, how does the T/C (dose: 50.0 mg/kg/injection, schedule: Q04DX003 (ip), vehicle: saline) read?
A: 95 % of control

Q: What about the T/C [10] of the same compound?
A: 100 % of control

Q: What about the T/C [11] of the same compound?
A: 100 % of control

Q: How did the T/C [12] turn out when `CCCCCCCCCCCCCCCCCC[n+]1cccc(C2CCCN2C)c1` (stereo unspecified) (tested in a mixture with another compound) was run?
A: 119 % of control

Q: How did the T/C [2] turn out when `O=C(O)CCCNSc1ccccc1[N+](=O)[O-]` was run?
A: 124 % of control

Q: With `O=C(COc1ccc(Cl)cc1)C1CSc2ccc(Br)cc21` (stereo unspecified) as the compound, how does the T/C (dose: 100.0 mg/kg/injection, schedule: Q04DX003 (ip), vehicle: saline sonified) read?
A: 90 % of control

Q: What about the T/C (dose: 200.0 mg/kg/injection, schedule: Q04DX003 (ip), vehicle: saline sonified) of the same compound?
A: 95 % of control

Q: What about the T/C (dose: 400.0 mg/kg/injection, schedule: Q04DX003 (ip), vehicle: saline sonified) of the same compound?
A: 95 % of control

Q: Which results are given for `Clc1ccc(N=C(SSC(Cl)(Cl)Cl)SSC(Cl)(Cl)Cl)cc1`?
A: T/C (dose: 12.5 mg/kg/injection, schedule: Q01DX009 (ip), vehicle: saline with Tween-80): 116 % of control; T/C (dose: 25.0 mg/kg/injection, schedule: Q01DX009 (ip), vehicle: saline with Tween-80): 103 % of control; T/C [1]: 109 % of control

Q: Which results are given for `O=C1NC(c2ccccc2)(c2ccccc2)C(=O)N1SC(Cl)(Cl)Cl`?
A: T/C (dose: 3.12 mg/kg/injection, schedule: Q01DX009 (ip), vehicle: Klucel (hydroxypropylcellulose) (HPC)): 123 % of control; T/C (dose: 6.25 mg/kg/injection, schedule: Q01DX009 (ip), vehicle: Klucel (hydroxypropylcellulose) (HPC)): 120 % of control; T/C (dose: 12.5 mg/kg/injection, schedule: Q01DX009 (ip), vehicle: Klucel (hydroxypropylcellulose) (HPC)): 120 % of control; T/C [12]: 117 % of control; T/C (dose: 50.0 mg/kg/injection, schedule: Q01DX009 (ip), vehicle: Klucel (hydroxypropylcellulose) (HPC)): 106 % of control

Q: `OC1CC2CC1C(Cl)C2Cl` (stereo unspecified) was tested. Which T/C [1] did it give?
A: 113 % of control

Q: What about the T/C [2] of the same compound?
A: 96 % of control

Q: What about the T/C [3] of the same compound?
A: 98 % of control

Q: `Cc1ccc(NC(=O)NCCCOc2ccc(N3C(N)=NC(N)=NC3(C)C)cc2Cl)cc1S(=O)(=O)F` was tested. Which T/C (dose: 45.0 mg/kg/injection, schedule: Q04DX003 (ip), vehicle: saline) did it give?
A: 100 % of control

Q: And the T/C (dose: 50.0 mg/kg/injection, schedule: Q01DX009 (ip), vehicle: saline)?
A: 155 % of control

Q: What about the T/C (dose: 65.0 mg/kg/injection, schedule: Q04DX003 (ip), vehicle: saline) of the same compound?
A: 109 % of control

Q: What about the T/C (dose: 75.0 mg/kg/injection, schedule: Q01DX009 (ip), vehicle: saline) of the same compound?
A: 150 % of control and 155 % of control

Q: What about the T/C [10] of the same compound?
A: 122 % of control

Q: What about the T/C (dose: 110.0 mg/kg/injection, schedule: Q01DX009 (ip), vehicle: saline) of the same compound?
A: 160 % of control

Q: What about the T/C (dose: 150.0 mg/kg/injection, schedule: Q01DX009 (ip), vehicle: saline) of the same compound?
A: 90 % of control

Q: What about the T/C [11] of the same compound?
A: 186 % of control

Q: For `CCOC(=O)/C(C#N)=C/N=c1ncccn1C`, which T/C [13] is on record?
A: 98 % of control

Q: What about the T/C [14] of the same compound?
A: 93 % of control

Q: And the T/C [15]?
A: 102 % of control

Q: Which results are given for `CC(=O)OCCCc1ccccc1`?
A: T/C [4]: 109 % of control; T/C [5]: 110 % of control; T/C [6]: 104 % of control; T/C [7]: 100 % of control; T/C [8]: 95 % of control; T/C [9]: 110 % of control

Q: How did the T/C (dose: 100.0 mg/kg/injection, schedule: Q01DX009 (ip), vehicle: saline sonified) turn out when `CS(=O)(=O)OCCn1c(=O)n(CCOS(C)(=O)=O)c(=O)n(CCOS(C)(=O)=O)c1=O` was run?
A: 90 % of control

Q: What about the T/C [13] of the same compound?
A: 90 % of control

Q: What about the T/C (dose: 200.0 mg/kg/injection, schedule: Q01DX009 (ip), vehicle: saline sonified) of the same compound?
A: 110 % of control

Q: What about the T/C [14] of the same compound?
A: 100 % of control

Q: What about the T/C (dose: 400.0 mg/kg/injection, schedule: Q01DX009 (ip), vehicle: saline sonified) of the same compound?
A: 90 % of control

Q: What about the T/C [15] of the same compound?
A: 100 % of control

Q: For `CN=NNc1ccccc1`, which T/C (dose: 66.0 mg/kg/injection, schedule: Q04DX003 (ip), vehicle: saline with Tween-80) is on record?
A: 120 % of control

Q: What about the T/C (dose: 75.0 mg/kg/injection, schedule: Q01DX009 (ip), vehicle: other) of the same compound?
A: 118 % of control

Q: What about the T/C (dose: 75.0 mg/kg/injection, schedule: Q04DX003 (ip), vehicle: saline with Tween-80) of the same compound?
A: 120 % of control

Q: What about the T/C (dose: 150.0 mg/kg/injection, schedule: Q04DX003 (ip), vehicle: saline with Tween-80) of the same compound?
A: 100 % of control

Q: And the T/C (dose: 225.0 mg/kg/injection, schedule: Q04DX003 (ip), vehicle: saline with Tween-80)?
A: 95 % of control

Q: What about the T/C (dose: 300.0 mg/kg/injection, schedule: Q04DX003 (ip), vehicle: saline with Tween-80) of the same compound?
A: 100 % of control

Q: With `O=c1oc2ccccc2c2c1C(c1ccc3c(c1)OCO3)C=C(c1ccc3c(c1)OCO3)O2` (stereo unspecified) as the compound, how does the T/C (dose: 12.5 mg/kg/injection, schedule: Q01DX009 (ip), vehicle: water) read?
A: 97 % of control

Q: What about the T/C (dose: 25.0 mg/kg/injection, schedule: Q01DX009 (ip), vehicle: water) of the same compound?
A: 104 % of control

Q: And the T/C (dose: 25.0 mg/kg/injection, schedule: Q04DX003 (ip), vehicle: water)?
A: 113 % of control

Q: What about the T/C (dose: 50.0 mg/kg/injection, schedule: Q01DX009 (ip), vehicle: water) of the same compound?
A: 101 % of control and 104 % of control

Q: And the T/C (dose: 50.0 mg/kg/injection, schedule: Q04DX003 (ip), vehicle: water)?
A: 116 % of control

Q: What about the T/C (dose: 100.0 mg/kg/injection, schedule: Q01DX009 (ip), vehicle: water) of the same compound?
A: 95 % of control

Q: What about the T/C (dose: 100.0 mg/kg/injection, schedule: Q04DX003 (ip), vehicle: water) of the same compound?
A: 103 % of control

Q: What about the T/C (dose: 200.0 mg/kg/injection, schedule: Q01DX009 (ip), vehicle: water) of the same compound?
A: 108 % of control and 123 % of control

Q: And the T/C (dose: 200.0 mg/kg/injection, schedule: Q04DX003 (ip), vehicle: water)?
A: 102 % of control and 111 % of control

Q: And the T/C (dose: 300.0 mg/kg/injection, schedule: Q01DX009 (ip), vehicle: water)?
A: 101 % of control

Q: And the T/C (dose: 300.0 mg/kg/injection, schedule: Q04DX003 (ip), vehicle: water)?
A: 102 % of control

Q: And the T/C (dose: 400.0 mg/kg/injection, schedule: Q01DX009 (ip), vehicle: water)?
A: 101 % of control

Q: What about the T/C (dose: 400.0 mg/kg/injection, schedule: Q04DX003 (ip), vehicle: water) of the same compound?
A: 119 % of control and 120 % of control

Q: And the T/C (dose: 500.0 mg/kg/injection, schedule: Q01DX009 (ip), vehicle: water)?
A: 118 % of control

Q: Which results are given for `COC1=C(NCc2ccccc2)C(=O)C(OC)=C(NCc2ccccc2)C1=O`?
A: T/C [4]: 90 % of control; T/C [5]: 95 % of control; T/C [6]: 100 % of control; T/C [7]: 86 % of control; T/C [8]: 100 % of control; T/C [9]: 95 % of control
